Measured values taken from patent US20220144812A1, “QUINOLINE DERIVATIVES AND THEIR USE FOR THE TREATMENT OF CANCER” (Epizyme, Inc., priority 2019, published 2022).
Where two headings read alike, the source gives them in different places.

Columns and labels:
647V cells = experiment: High throughput proliferation (HTP) assay; format: cell-based; settings: high throughput proliferation, read-out: CREBBP HTP IC50
Summary of the method: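 Proliferation IC50 (micromolar) derived from a 7-day CellTiter-Glo viable-cell readout in 647V cells exposed, in triplicate, to rising compound concentrations; cells grown in DMEM plus 15% heat-inactivated FBS at 37° C under 5% CO2.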

CREBBP (1084-1701) = biological target: T1, CREBBP (1084-1701) (Homo sapiens, UniProt Q92793); experiment: Biochemical assay for CREBBP (1084-1701), SAMDI; settings: SAMDI, read-out: CREBBP Biochemistry IC50
T1 construct: measured in the following biochemical assay using CREBBP (1084-1701); purchased
T1 sequence (Q92793 1084-1701): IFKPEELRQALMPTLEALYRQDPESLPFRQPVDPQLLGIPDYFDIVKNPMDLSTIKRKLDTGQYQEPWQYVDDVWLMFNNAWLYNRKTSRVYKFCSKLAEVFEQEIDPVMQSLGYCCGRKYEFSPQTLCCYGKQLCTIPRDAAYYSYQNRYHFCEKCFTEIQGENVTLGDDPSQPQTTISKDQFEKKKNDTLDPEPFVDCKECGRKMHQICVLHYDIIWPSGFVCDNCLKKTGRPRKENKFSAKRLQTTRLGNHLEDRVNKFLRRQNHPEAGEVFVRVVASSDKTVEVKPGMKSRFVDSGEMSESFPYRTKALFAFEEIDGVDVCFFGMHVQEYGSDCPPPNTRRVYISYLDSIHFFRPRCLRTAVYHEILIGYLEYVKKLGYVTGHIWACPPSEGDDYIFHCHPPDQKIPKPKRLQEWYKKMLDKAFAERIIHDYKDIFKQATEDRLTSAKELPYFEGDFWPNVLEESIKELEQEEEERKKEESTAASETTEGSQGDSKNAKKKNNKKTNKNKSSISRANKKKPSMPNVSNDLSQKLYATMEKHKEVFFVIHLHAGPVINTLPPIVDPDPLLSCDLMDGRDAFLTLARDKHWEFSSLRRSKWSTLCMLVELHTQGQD
Summary of the method: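 Acetyltransferase activity measured by SAMDI mass spectrometry after capture on biochip. Enzyme sat with compound 30 min at RT before acetyl-CoA and biotinylated H3 11-25 (K14R, K23R) peptide were added for 30 min at RT. Formic acid quench, bicarbonate neutralisation; IC50 values reported.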

EP300 (P300(1048-1664)) = biological target: T2, EP300 (P300(1048-1664)) (Homo sapiens, UniProt Q09472); experiment: Biochemical assay for EP300, SAMDI; settings: EP300, SAMDI; read-out: EP300 Biochemistry IC50
T2 construct: P300(1048-1664)
T2 sequence (Q09472 1048-1664): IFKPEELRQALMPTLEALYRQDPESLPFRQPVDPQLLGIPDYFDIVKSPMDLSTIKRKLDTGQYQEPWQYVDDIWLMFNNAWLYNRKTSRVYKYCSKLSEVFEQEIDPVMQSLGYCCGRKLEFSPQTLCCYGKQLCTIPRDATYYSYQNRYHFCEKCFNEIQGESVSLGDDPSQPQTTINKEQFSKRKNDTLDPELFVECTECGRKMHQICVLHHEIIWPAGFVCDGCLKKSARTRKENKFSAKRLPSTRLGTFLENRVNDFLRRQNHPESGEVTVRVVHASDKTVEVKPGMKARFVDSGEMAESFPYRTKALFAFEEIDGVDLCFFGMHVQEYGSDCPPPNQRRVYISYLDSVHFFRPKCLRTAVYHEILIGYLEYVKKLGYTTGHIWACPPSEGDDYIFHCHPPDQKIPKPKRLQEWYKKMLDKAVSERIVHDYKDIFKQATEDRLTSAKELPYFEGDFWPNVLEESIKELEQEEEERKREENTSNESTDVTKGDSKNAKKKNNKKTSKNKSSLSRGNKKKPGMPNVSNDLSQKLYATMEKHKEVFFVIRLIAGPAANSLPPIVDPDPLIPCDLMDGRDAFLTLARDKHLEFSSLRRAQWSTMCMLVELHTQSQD
Excerpt: The following example describes materials and methods relating to a biochemical assay for EP300. IC50 values (micromolar (μM)) are summarized in Table 1, Table 2, and Table 3 under the column labeled: “EP300 Biochemistry IC50 (micromolar).”

[1] = test system: H3K18Ac in HB-CLS-2 cells; experiment: H3K18AC in-cell western (ICW) assay; format: cell-based; settings: H3K18Ac in-cell western, read-out: CREBBP ICW IC50
Summary of the method: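 In-cell western: after methanol fixation, blocking, overnight 4° C anti-H3K18Ac staining, then 800CW secondary plus DRAQ5 for DNA content, integrated intensities were scanned at 800 and 700 nm. Before this, compound exposure lasted 2 hr at 37° C in HB-CLS-2 cells plated 16–24 hours earlier. Values expressed as IC50 (μM).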

[2] = Homo sapiens, 647-V, 647V cells

| Structure (SMILES) | IC50 (647V cells; Homo sapiens, 647-V) | IC50 (CREBBP (1084-1701)) | IC50 (EP300 (P300(1048-1664))) | IC50 [1] | IC50 (647V cells) | IC50 (647V cells; [2]) | IC50 ([1]; HB-CLS-2 cells) |
| --- | --- | --- | --- | --- | --- | --- | --- |
| CCn1ncc(CN(C)C(=O)c2cc(-c3ccc(NCCNC)nn3)nc3ccc(Cl)cc23)c1C [Compound 504] | 3730 nM | 5780 nM | 2000 nM | 3990 nM |  |  |  |
| CCc1ncc(CN(C)C(=O)c2cc(-c3ccc(NCCNC)c(F)n3)nc3ccc(Cl)cc23)n1C [Compound 565] | 193 nM | 51.1 nM | 33.8 nM | 153 nM |  |  |  |
| CCn1ncc(CN(C)C(=O)c2cc(-c3ccc(NC4CNCC4(F)F)c(C)n3)nc3ccc(Cl)cc23)c1C (centres unmarked) [Compound 538] | 1730 nM | 88.7 nM | 88.6 nM | 1060 nM |  |  |  |
| CCn1ncc(CN(C)C(=O)c2cc(-n3cc4c(n3)CNCC4)nc3ccc(Cl)cc23)c1C [Compound 168] |  | 18000 nM | 5800 nM | 13000 nM | 18000 nM |  |  |
| CCn1ncc(CN(C)C(=O)c2nc(-c3ccc(NCCNC)cn3)nc3ccc(Cl)cc23)c1C [Compound 112] | 2100 nM | 1300 nM | 730 nM | 2700 nM |  |  |  |
| CCn1ncc(CN(C)C(=O)c2nc(-c3ccc(C(=O)NC)cc3)nc3ccc(Cl)cc23)c1C [Compound 156] | 9600 nM | 34000 nM | 13000 nM | 9600 nM |  |  |  |
| CCn1ncc(CN(C)C(=O)c2nc(-c3cc(NC(=O)CNC)cc(OC)c3)nc3ccc(Cl)cc23)c1C [Compound 384] |  | 33 nM | 12 nM |  |  | 100 nM | 130 nM |
| CCn1ncc(CN(C)C(=O)c2nc(-c3ccc4[nH]nnc4c3)nc3ccc(Cl)cc23)c1C [Compound 133] | 5900 nM | 100 nM | 470 nM | 4900 nM |  |  |  |
| CCn1ncc(CN(C)C(=O)c2cc(-c3cc(-c4ncc[nH]4)n(C)n3)nc3ccc(Cl)cc23)c1C [Compound 542] | 56.6 nM | 6.92 nM | 2.4 nM | 53.5 nM |  |  |  |
| CCn1ncc(CN(C)C(=O)c2nc(-c3cc(C)nc(NCCOC)c3)nc3ccc(Cl)cc23)c1C [Compound 611] | 312 nM | 73.6 nM | 493 nM | 345 nM |  |  |  |
| CCn1ncc(CN(C)C(=O)c2cc(-c3cc(NCCNC)cc(C)n3)nc3ccc(Cl)cc23)c1C [Compound 409] |  | 74 nM | 23 nM |  |  | 54 nM | 230 nM |
| CCc1ncc(CN(C)C(=O)c2cc(-c3cc(C(=O)NC)n(C)n3)nc3ccc(Cl)cc23)n1C [Compound 512] | 110 nM | 15.2 nM | 4 nM | 104 nM |  |  |  |
| CCn1ncc(CN(C)C(=O)c2nc(-c3ccc(OCCO)c(OC)c3)nc3ccc(Cl)cc23)c1C [Compound 102] | 2300 nM | 4000 nM | 4300 nM | 2100 nM |  |  |  |
| CCn1ncc(CN(C)C(=O)c2nc(-c3cc(C(=O)NC)nn3C)nc3ccc(Cl)cc23)c1C [Compound 391] |  | 8500 nM | 4100 nM |  |  | 3100 nM | 3200 nM |
| CCn1ncc(CN(C)C(=O)c2nc(-c3ccc(OCCCNC(=O)OC(C)(C)C)c(OC)c3)nc3ccc(Cl)cc23)c1C [Compound 127] | 3500 nM | 12000 nM | 15000 nM | 4400 nM |  |  |  |
| CCn1ncc(CN(C)C(=O)c2nc(-c3cc(C)cc(NCC(=O)NC)c3)nc3ccc(Cl)cc23)c1C [Compound 408] |  | 430 nM | 950 nM |  |  | 890 nM | 1100 nM |
| CCn1ncc(CN(C)C(=O)c2nc(-c3cc(CNC)n(C)n3)nc3ccc(Cl)cc23)c1C [Compound 380] |  | 25000 nM | 14000 nM |  |  | 20000 nM | 20000 nM |
| CCn1ncc(CN(C)C(=O)c2cc(-c3cn[nH]c3N)nc3ccc(Cl)cc23)c1C [Compound 227] |  | 50000 nM | 41000 nM |  |  | 20000 nM | 20000 nM |
| CCn1ncc(CN(C)C(=O)c2nc(-c3ccc(CN4CCNCC4)c(OC)c3)nc3ccc(Cl)cc23)c1C [Compound 139] |  | 6800 nM | 7400 nM | 5900 nM | 7500 nM |  |  |
| CCn1ncc(CN(C)C(=O)c2nc(-c3ccnc(Cl)c3)nc3ccc(NC)cc23)c1C [Compound 87] | 1400 nM | 840 nM | 880 nM | 1400 nM |  |  |  |
| CCn1ncc(CN(C)C(=O)c2nc(-c3cc(N)cc(Cl)c3)nc3ccc(Cl)cc23)c1C [Compound 16] | 160 nM | 4.6 nM | 7.4 nM | 150 nM |  |  |  |
| CCn1ncc(CN(C)C(=O)c2cc(-c3ccc(N4CC(N(C)C)C4)c(C)n3)nc3ccc(Cl)cc23)c1C [Compound 497] | 2560 nM | 846 nM | 661 nM | 1630 nM |  |  |  |
| CCc1nc(-c2cc(C(=O)N(C)Cc3cnn(CC)c3C)c3cc(COC)ccc3n2)ccc1NCCNC [Compound 595] | 99.1 nM | 51.6 nM | 59.9 nM | 145 nM |  |  |  |
| CCn1ncc(CN(C)C(=O)c2cc(-c3ccc(NCCNC)c(C)n3)nc3cc(COC)ccc23)c1C [Compound 492] | 1670 nM | 7240 nM | 5990 nM | 2400 nM |  |  |  |
| CCn1ncc(CN(C)C(=O)c2nc(-c3cc(Cl)cc(NCCCNC)c3)nc3ccc(Cl)cc23)c1C [Compound 50] |  | 16 nM | 5 nM | 480 nM | 150 nM |  |  |
| CCn1ncc(CN(C)C(=O)c2nc(-c3ccc(OCCO)c(Cl)c3)nc3ccc(Cl)cc23)c1C [Compound 41] | 160 nM | 62 nM | 250 nM | 370 nM |  |  |  |
| CCn1ncc(CN(C)C(=O)c2nc(-c3cc4c(NC)[nH]nc4cc3C)nc3ccc(C4CC4)cc23)c1C [Compound 614] | 34.6 nM | 22.9 nM | 8.7 nM | 32.1 nM |  |  |  |
| CCc1ncc(CN(C)C(=O)c2cc(-c3ccc(NC4CN(C)C4)c(C)n3)nc3ccc(Cl)cc23)n1C [Compound 561] | 22.8 nM | 19.1 nM | 6.5 nM | 58.2 nM |  |  |  |
| CCn1ncc(CN(C)C(=O)c2nc(-c3ccc(OCC(O)CNC)c(Cl)c3)nc3ccc(Cl)cc23)c1C (centres unmarked) [Compound 25] | 76 nM | 27 nM | 33 nM | 210 nM |  |  |  |
